Assay results from US9109001B2, “3′,5′-cyclic phosphoramidate prodrugs for HCV infection” (priority 2012, dated 2015).
Where two headings read alike, the source gives them in different places.

Columns and labels:
[1] = Stability in human liver microsomes; type: in vitro ADME; conditions: 10 μM, 1.0 mg/mL protein, NADPH, 60 min; percent unchanged
Method: (§1) Stability in Liver and Intestinal Subcellular Fractions: Stability of test compounds were determined in subcellular fractions (microsomes and S9) of human liver and intestine in duplicate for each matrix. Pooled liver and intestinal microsomal, intestinal and liver S9 proteins (1.0 mg/mL), suspended in incubation buffer (100 mM potassium phosphate, pH 7.4, 5 mM MgCl2, and 0.1 mM EDTA), were preincubated for 5 min at 37° C. with 10 μM of a test compound from a 10 mM stock solution in DMSO (final DMSO concentration was 0.1%); the reaction was initiated by the addition of NADPH (3 mM final concentration). At specific times (0 and 60 min), 0.1 mL samples were taken and the reaction terminated by the addition of 4 volumes of stop solution (acetonitrile with 500 ng/mL carbutamide as an internal standard). The samples were vortexed for 30 sec and then centrifuged at 16,000 g for 10 min. 100 μL of supernatants were transferred to 96 deep-well plates preloaded with 100 μL distilled water and analyzed after mixing by LC-MS/MS. The MS peak area ratio of the test compound versus the internal standard was calculated and percent unchanged test compound over 60 minutes was calculated using this ratio.

[2] = Stability in simulated intestinal fluid; type: in vitro ADME; conditions: 100 μM, 2 hours at 37° C.; percent of peak area at time zero
Method: (§2) Stability in Simulated Gastric and Intestinal Fluids: Simulated gastric and intestinal fluids containing pepsin and pancreatin respectively were prepared according to the U.S. Pharmacopoeia USP291 procedure (www.pharmacopeia.cn/v29240/usp29nf24s0_ris1s126.html). Test compound (final concentration 100 μM) was incubated in duplicate in the appropriate fluid for 2 hours at 37° C. The samples were quenched with 200 μl cold acetonitrile, vortexed for 30 seconds and then centrifuged at 16,100 g for 10 min. The supernatants were analyzed by HPLC on a C-18 column with UV detection at 252 nm. The time 0 samples were prepared by adding SGF or SIF fluid to the quenching solvent followed by the test compound. Stability of the compound was determined by peak area the test compound after incubation and calculated as percent of the peak area observed at time zero.

Stability in mouse blood = type: in vitro ADME; conditions: on ice, percent unchanged test compound
Method: (§3) Stability in Fresh Whole Blood: Stability of test compounds were determined in fresh human whole blood with K2EDTA as the anticoagulant (stored refrigerated at 2-8° C. and used within 7 days of receipt). The experiment was conducted with three replicates for each time point. Whole blood, pre-incubated at 37° C. for 10-15 minutes, was fortified with a solution of test compound for a final concentration of 0.5 μM and mixed for 30 sec. At intervals (0, 0.5, 1 and 2 hr), three 50-μL aliquots were combined with 200 μL (each) of an ice-cold solution of the internal standard (carbutamide 500 ng/mL in acetonitrile). The samples were vortexed for 30 sec and then centrifuged at 16,100 g for 5 min. The supernatant was analyzed by LC-MS/MS. The MS peak area ratio of the test compound versus the internal standard was calculated and percent unchanged test compound was calculated for each time point using this ratio.
The stability in mouse blood was determined on ice at 0, 0.5 and 1 hr as above.

[3] = Stability in simulated gastric fluid; type: in vitro ADME; conditions: 100 μM, 2 hours at 37° C.; percent of peak area at time zero
Method: as §2

[4] = Stability in human intestinal S9 (HIS9); type: in vitro ADME; conditions: 10 μM, 1.0 mg/mL protein, NADPH, 60 min; percent unchanged
Method: as §1

HCV genotype 1b replicon = experiment: HCV Replicon Assay; type: cell-based; conditions: Zluc (Huh-7-derived) cells, HCV genotype 1b replicon, luciferase reporter, 72 hours, read-out: HCV Replicon EC50
Method: Huh-7-derived cell line (Zluc) that harbors an HCV genotype 1b replicon and a luciferase reporter gene was grown in Dulbecco's Modified Eagle Medium (DMEM) supplemented with 10% fetal bovine serum, 2 mM GlutaMAX, 1% MEM nonessential amino acids, 100 IU/mL penicillin, 100 μg/mL streptomycin, and 0.5 mg/mL Geneticin® (G418). For dose response testing the cells were seeded in 96-well plates at 7.5×10^3 cells per well in a volume of 50 μL, and incubated at 37° C./5% CO2. Drug solutions were made up freshly in Huh-7 media as 2× stocks. Ten additional 5-fold dilutions were prepared from these stocks in DMEM without G418. At least three hours after Zluc cells were seeded, drug treatment was initiated by adding 50 μL of drug dilutions to the plates in duplicate. Final concentrations of drug ranged from 100 μM to […]. Cells were then incubated at 37° C./5% CO2. Alternatively, compounds were tested at two concentrations (1 μM and 10 μM). […] For this, media was removed from the plates via gentle tapping. Fifty microliters of ONE-glo luciferase assay reagent was added to each well. The plates were shaken gently for 3 min at room temperature and luminescence was measured on a Victor^3 V 1420 multilabel counter (Perkin Elmer) with a 1 second read time using a 700 nm cut-off filter. The EC50 values were calculated from dose response curves from the resulting best-fit equations determined by Microsoft Excel and XLfit 4.1 software. When screening at two fixed concentrations, the results were expressed as % inhibition at 1 μM and 10 μM.

[5] = Stability in fresh human whole blood; type: in vitro ADME; conditions: 0.5 μM, percent unchanged test compound
Method: as §3

[6] = Plasma and liver pharmacokinetics following a single oral dose in CD-1 mice; type: in vivo; conditions: CD-1 male mice; for Ms Liver 2′-MeGTP AUC (pmol · hr/g at 1 μmol/kg): single oral dose 25 mg/kg in PEG 200, liver 2′-MeGTP; for Ms Plasma 2′-MeG AUC (pmol · hr/mL at 1 μmol/kg) / Ms Plasma 2′-MeG Cmax (pmol/mL at 1 μmol/kg): single oral dose 25 mg/kg in PEG 200, plasma 2′-MeG
Method: Plasma samples were analyzed for 2′-methylguanosine (2′-MeG) by LC-MS/MS. The internal standard (IS) was 2′-MeG-D3. For protein precipitation and extraction, each plasma sample (50 μL) was treated with 500 μL of 0.2% formic acid in acetonitrile and 20 μL of the internal standard working solution. After vortexing and centrifugation, 500 μL of the sample extracts were transferred to a new plate, dried under N2 at ˜28° C. and reconstituted with 75 μL of 0.2% FA in water. The extracts were chromatographed on an Aquasil C18 column using a gradient system of 0.2% formic acid in water and acetonitrile. The analytes were detected and quantified by tandem mass spectrometry in positive ion mode on an MDS Sciex API5000 equipped with a Turbo Ionspray® interface. The calibration range was 0.500 (LLOQ) to 200 ng/mL in mouse plasma. The corresponding range for molar units is 1.68 to 673 pmol/mL.
Liver samples were analyzed for the active species 2′-methylguanosine triphosphate (2′-MeGTP) by LC-MS/MS. […] Internal standard solution was added to the homogenate followed by neutralization with 20% ammonium hydroxide solution and addition of 500 μL 1% formic acid. The tissue samples were extracted by weak anion exchange solid phase extraction (SPE). Post extraction, the eluates were evaporated under nitrogen, followed by reconstitution before injection onto the LC-MS/MS system. […] The calibration range was 10 to 10000 pmol/mL in mouse liver homogenate (50 to 50000 pmol/g of mouse liver).

Compound | Stability HLM (1 hr) [1] [%] | Stability SIF [2] [%] | Stability WB_Mouse (ice; 1 hr) (Stability in mouse blood) [%] | Stability SGF [3] [%] | Stability HIS9 (1 hr) [4] [%] | EC50 (HCV genotype 1b replicon; Hepatitis C virus, 72 h) [nM] | Stability WB_Human (37° C.; 2 hr) [5] [%] | Ms Liver 2′-MeGTP AUC (pmol · hr/g at 1 μmol/kg) [6] [pmol · hr/g at 1 μmol/kg] | Ms Plasma 2′-MeG AUC (pmol · hr/mL at 1 μmol/kg) [6] [pmol · hr/mL at 1 μmol/kg] | Ms Plasma 2′-MeG Cmax (pmol/mL at 1 μmol/kg) [6] [pmol/mL at 1 μmol/kg] | EC50 (HCV genotype 1b replicon) [nM]
CCOc1nc(N)nc2c1ncn2[C@@H]1O[C@@H]2COP(=O)(N[C@@H](C)C(=O)OC(C)C)O[C@H]2[C@@]1(C)F (single isomer, unassigned) [Compound 1 Diastereomer 1] | 11 | 83 | 92 | 87 | 84 | 250 to 1000 | 87 | 2400 | 110 | 14 | 
CCOc1nc(N)nc2c1ncn2[C@@H]1O[C@@H]2COP(=O)(N[C@@H](C)C(=O)OC(C)C)O[C@H]2[C@@]1(C)F (single isomer, unassigned) [Compound 1 Diastereomer 2] | 52 | 2 | 36 | 83 | 96 |  | 67 | 810 | 92 | 9.8 | < 250
